Source: patent US11779661B2, “Theranostic nucleic acid binding fluorescent nanoprobes and uses thereof” (The General Hospital Corporation, priority 2016, dated 2023)

Tested on: Bacterial Phage Lambda DNA
Assay: In vitro nucleic acid binding fluorescence assay, Lambda DNA
Conditions: equivalent fluorochrome concentrations, FIG. 1F
Method: Bacterial Phage Lambda DNA (Sigma-Aldrich), CpG DNA (Enzo Life, Plymouth Meeting, Pa.), Torula yeast RNA (Sigma-Aldrich) were completely dissolved in Tris-acetate-EDTA (TAE) buffer (pH=8) by gentle inversion overnight at 4° C. Lambda DNA, CpG DNA, yeast RNA stock solutions were characterized by spectrophotometry to determine the concentration and purity. Total mouse heart RNA was extracted from C57Bl6 mouse hearts using TRI Reagent (Sigma-Aldrich) and characterized with a NanoDrop spectrophotometer (Thermo Fisher) as described in Feng Y, Chen H, et al., J Biol Chem. 2015; 290: 26688-98. […] Fluorescence was measured with the GloMax-Multi Detection System and snap-in fluorescent optical kits (Promega, Madison, Wis.). EC50 was determined using the dose-response curve fitting function implemented in Prism (GraphPad, La Jolla, Calif.).

Row | Molecule | Fluorescence increase with DNA concentration
1 | CN1/C(=C/c2cc[n+](CCC[N+](C)(C)C)c3ccccc23)Sc2ccccc21 [TO-PRO 1] | substantially less increase
2 | Cy5.5 | No fluorescence increase and none
